Measured values: patent publication US10219516B2, “Molecules having pesticidal utility, and intermediates, compositions, and processes, related thereto” (priority 2015, dated 2019)

Columns and labels:
Assay type in all cases: in vivo
[1] = system: Beet Armyworm (Spodoptera exigua, LAPHEG); assay: Bioassay on Beet Armyworm (BAW), 128-well diet tray assay; conditions: Species BAW (Beet Armyworm), read-out: BAW (Biological Results, rating)
Outline: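 Test molecule dissolved in acetone-water 90:10 is applied at 50 μg/cm^2 onto artificial diet and allowed to dry. Second instar larvae, one to five per well, are then added, and trays are vented and kept at 25° C. for five to seven days before mortality is scored.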

[2] = system: Cabbage Looper (Trichoplusia ni, TRIPNI); assay: Bioassay on Cabbage Looper (CL), 128-well diet tray assay; conditions: Trichoplusia ni; Species CL (Cabbage Looper); read-out: CL (Biological Results, rating)
Outline: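 Second-instar larvae, one to five per well, placed on artificial diet treated with 50 μg/cm^2 test molecule in 90:10 acetone-water, dried before infestation. Held 5–7 days at 25° C, 14:10 light-dark; percent mortality averaged over eight wells.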

[3] = system: Green Peach Aphid (Myzus persicae, MYZUPE); assay: Bioassay on Green Peach Aphid (GPA), foliar spray on infested cabbage seedlings; conditions: foliar, 72 h, Species GPA (Green Peach Aphid), read-out: GPA (Biological Results, rating)
Outline: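 Cabbage seedlings (2-3 true leaves) infested with 20-50 wingless adult and nymph aphids one day before treatment; sprayed to runoff at 200 ppm in 0.025% Tween 20 water with 20% acetone/methanol, four pots per treatment. Held three days at about 25° C; live aphids counted, % control by Abbott's correction versus solvent check.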

[4] = system: Yellow Fever Mosquito (Aedes aegypti, AEDSAE); assay: Bioassay on Yellow Fever Mosquito (YFM), 96-well plate larval assay; conditions: Species YFM (Yellow Fever Mosquito)
Outline: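 Each well was scored for mortality after 3 days at room temperature under a non-evaporative lid. Test molecules came from DMSO masters (4000 ppm stock) diluted with water/acetone 90:10 and dispensed into six replicate plates, which were then infested with roughly 1-day-old larvae in liver-powder water.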

| Compound | pest or weed control at 50 µg/cm2 [1] [%] | pest or weed control at 50 µg/cm2 [2] [%] | pest or weed control at 200 µg/mL [3] [%] | YFM (Biological Results, rating) [4] |
| --- | --- | --- | --- | --- |
| CN(C(=O)c1cc(NC(=O)[C@H]2[C@H](c3cc(Cl)c(Cl)c(Cl)c3)C2(Cl)Cl)ccc1Cl)c1ccc(F)cc1 (relative stereo) [F52, trans-2-Chloro-5-(2,2-dichloro-3-(3,4,5-trichlorophenyl)cyclopropane-1-carboxamido)-N-(4-fluorophenyl)-N-methylbenzamide] | 50 to 100 | 50 to 100 | 80 to 100 | A (80-100) |
| CN(C(=O)c1cc(NC(=O)[C@H]2[C@H](c3ccc(Cl)c(Cl)c3)C2(Cl)Cl)ccc1Cl)c1ccc(F)cc1 (relative stereo) [F53, trans-2-Chloro-5-(2,2-dichloro-3-(3,4-dichlorophenyl)cyclopropane-1-carboxamido)-N-(4-fluorophenyl)-N-methylbenzamide] | 50 to 100 | 50 to 100 | 80 to 100 | A (80-100) |
| Cc1cc(C#N)ccc1NC(=O)c1cc(NC(=O)[C@H]2[C@H](c3cc(Cl)c(Cl)c(Cl)c3)C2(Cl)Cl)ccc1Cl (relative stereo) [F54, trans-2-Chloro-N-(4-cyano-2-methylphenyl)-5-(2,2-dichloro-3-(3,4,5-trichlorophenyl)cyclopropane-1-carboxamido)benzamide] | 50 to 100 | 50 to 100 | 0 to 80 | A (80-100) |
| Cc1cc(C#N)ccc1NC(=O)c1cc(NC(=O)[C@H]2[C@H](c3ccc(Cl)c(Cl)c3)C2(Cl)Cl)ccc1Cl (relative stereo) [F55, trans-2-Chloro-N-(4-cyano-2-methylphenyl)-5-(2,2-dichloro-3-(3,4-dichlorophenyl)cyclopropane-1-carboxamido)benzamide] | 50 to 100 | 50 to 100 | 80 to 100 | A (80-100) |
| CN(C(=O)c1cc(NC(=O)[C@H]2[C@H](c3ccc(Cl)c(Cl)c3)C2(Cl)Cl)ccc1F)c1ccc(F)cc1F (relative stereo) [F64, trans-5-(2,2-Dichloro-3-(3,4-dichlorophenyl)cyclopropane-1-carboxamido)-N-(2,4-difluorophenyl)-2-fluoro-N-methylbenzamide] | 50 to 100 | 50 to 100 | 80 to 100 | B (More than 0-Less than 80) |
| O=C(Nc1ccc(F)cn1)c1cc(NC(=O)[C@H]2[C@H](c3cc(Cl)cc(Cl)c3)C2(Cl)Cl)ccc1Cl (relative stereo) [F76, trans-2-Chloro-5-(2,2-dichloro-3-(3,5-dichlorophenyl)cyclopropane-1-carboxamido)-N-(5-fluoropyridin-2-yl)benzamide] | 50 to 100 | 50 to 100 | 80 to 100 | B (More than 0-Less than 80) |
| CNC(=O)c1ccc(NC(=O)c2cc(NC(=O)[C@H]3[C@H](c4cc(Cl)cc(Cl)c4)C3(Cl)Cl)ccc2Cl)cn1 (relative stereo) [F77, trans-5-(2-Chloro-5-(2,2-dichloro-3-(3,5-dichlorophenyl)cyclopropane-1-carboxamido)benzamido)-N-methylpicolinamide] | 50 to 100 | 50 to 100 | 80 to 100 | A (80-100) |
| O=C(Nc1ccc(F)cc1)c1cc(NC(=O)[C@H]2[C@H](c3ccc(OC(F)(F)F)c(Cl)c3)C2(Cl)Cl)ccc1Cl (relative stereo) [F79, trans-2-Chloro-5-(2,2-dichloro-3-(3-chloro-4-(trifluoromethoxy)phenyl)cyclopropane-1-carboxamido)-N-(4-fluorophenyl)benzamide] | 50 to 100 | 50 to 100 | 80 to 100 | B (More than 0-Less than 80) |
| CN(C(=O)c1cc(NC(=O)[C@H]2[C@H](c3ccc(OC(F)(F)F)c(Cl)c3)C2(Cl)Cl)ccc1Cl)c1ccc(F)cc1 (relative stereo) [F80, trans-2-Chloro-5-(2,2-dichloro-3-(3-chloro-4-(trifluoromethoxy)phenyl)cyclopropane-1-carboxamido)-N-(4-fluorophenyl)-N-methylbenzamide] | 50 to 100 | 50 to 100 | 80 to 100 | A (80-100) |
| O=C(Nc1ccc(F)cc1)c1cc(NC(=O)[C@H]2[C@H](c3cc(Cl)cc(C(F)(F)F)c3)C2(Cl)Cl)ccc1Cl (relative stereo) [F87, trans-2-Chloro-5-(2,2-dichloro-3-(3-chloro-5-(trifluoromethyl)phenyl)cyclopropane-1-carboxamido)-N-(4-fluorophenyl)benzamide] | 50 to 100 | 50 to 100 | 80 to 100 | A (80-100) |
| CCN(C(=O)c1cc(NC(=O)[C@H]2[C@H](c3cc(Cl)cc(Cl)c3)C2(Cl)Cl)ccc1Cl)c1ccc(F)cc1 (relative stereo) [F99, trans-2-Chloro-5-(2,2-dichloro-3-(3,5-dichlorophenyl)cyclopropane-1-carboxamido)-N-ethyl-N-(4-fluorophenyl)benzamide] | 50 to 100 | 50 to 100 | 80 to 100 | B (More than 0-Less than 80) |
| CCCN(C(=O)c1cc(NC(=O)[C@H]2[C@H](c3cc(Cl)cc(Cl)c3)C2(Cl)Cl)ccc1Cl)c1ccc(F)cc1 (relative stereo) [F101, trans-2-Chloro-5-(2,2-dichloro-3-(3,5-dichlorophenyl)cyclopropane-1-carboxamido)-N-(4-fluorophenyl)-N-propylbenzamide] | 50 to 100 | 50 to 100 | 0 to 80 | A (80-100) |
| O=C(Nc1ccc(F)cc1)c1cc(NC(=O)[C@H]2[C@H](c3cc(Cl)cc(Cl)c3)C2(Cl)Cl)ccc1F (relative stereo) [F129, trans-5-(2,2-Dichloro-3-(3,5-dichlorophenyl)cyclopropane-1-carboxamido)-2-fluoro-N-(4-fluorophenyl)benzamide] | 50 to 100 | 50 to 100 | 80 to 100 | A (80-100) |
| O=C(Nc1ccc(F)cc1)c1nc(NC(=O)[C@H]2[C@H](c3cc(Cl)cc(Cl)c3)C2(Cl)Cl)ccc1Cl (relative stereo) [F131, trans-3-Chloro-6-(2,2-dichloro-3-(3,5-dichlorophenyl)cyclopropane-1-carboxamido)-N-(4-fluorophenyl)picolinamide] | 50 to 100 | 50 to 100 | 0 to 80 | A (80-100) |
| O=C(Nc1ccc[n+]([O-])c1)c1cc(NC(=O)[C@H]2[C@H](c3cc(Cl)cc(Cl)c3)C2(Cl)Cl)ccc1Cl (relative stereo) [F139, trans-3-(2-chloro-5-(2,2-dichloro-3-(3,5-dichlorophenyl)cyclopropane-1-carboxamido)benzamido)pyridine 1-oxide] | 50 to 100 | 50 to 100 | 0 to 80 | A (80-100) |
| O=C(Nc1cccnc1F)c1cc(NC(=O)[C@H]2[C@H](c3cc(Cl)cc(Cl)c3)C2(Cl)Cl)ccc1Cl (relative stereo) [F156, trans-2-Chloro-5-(2,2-dichloro-3-(3,5-dichlorophenyl)cyclopropane-1-carboxamido)-N-(2-fluoropyridin-3-yl)benzamide] | 50 to 100 | 50 to 100 | 80 to 100 | B (More than 0-Less than 80) |
| O=C(Nc1c(F)cccc1F)c1cc(NC(=O)[C@H]2[C@H](c3cc(Cl)cc(Cl)c3)C2(Br)Br)ccc1Cl (relative stereo) [F162, trans-2-Chloro-5-(2,2-dibromo-3-(3,5-dichlorophenyl)cyclopropane-1-carboxamido)-N-(2,6-difluorophenyl)benzamide] | 50 to 100 | 50 to 100 | 0 to 80 | B (More than 0-Less than 80) |
| O=C(Nc1c(F)cccc1F)c1cc(NC(=O)[C@H]2[C@H](c3ccc(Cl)c(F)c3)C2(Cl)Cl)ccc1Cl (relative stereo) [F163, trans-2-Chloro-5-(2,2-dichloro-3-(4-chloro-3-fluorophenyl)cyclopropane-1-carboxamido)-N-(2,6-difluorophenyl)benzamide] | 50 to 100 | 50 to 100 | 0 to 80 | B (More than 0-Less than 80) |
